# Patent US10035790B2, “RORγ modulators” (BRISTOL-MYERS SQUIBB COMPANY, priority 2012, dated 2018)
# Biological target: T1, ligand binding domain of human RORγ (A262-S507) (Homo sapiens, UniProt P51449)
# T1 construct: made in house; host or cells: E. coli
# T1 sequence (P51449 262-507): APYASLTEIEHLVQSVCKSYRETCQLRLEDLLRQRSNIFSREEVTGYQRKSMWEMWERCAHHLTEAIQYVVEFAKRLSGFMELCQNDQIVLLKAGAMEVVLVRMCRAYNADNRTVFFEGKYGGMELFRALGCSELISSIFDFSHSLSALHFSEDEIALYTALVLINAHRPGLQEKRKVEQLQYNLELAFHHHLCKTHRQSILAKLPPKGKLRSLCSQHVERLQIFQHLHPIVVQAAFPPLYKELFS
# Experiment: General RORγ SPA binding assay (competition with [3H]25-hydroxycholesterol)
# Conditions: IC50, RORγ SPA binding assay, inhibition of [3H]25-hydroxycholesterol binding
# Summary of the method: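 Scintillation counts from copper His-tag SPA beads (4 mg/mL, 30 min) gave percent inhibition of radioligand binding, from which IC50 values are derived. The E. coli-expressed His-tagged domain (50 nM) is first exposed to compound for 15 min at room temperature in PBS containing 0.5% fatty acid free BSA.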
row,SMILES,IC50 [nM]
1,"Cc1nc(C)c(C(=O)NCc2ccnc(C(F)(F)F)n2)c(C2CCN(C(=O)Oc3c(F)cccc3F)CC2)n1 [Compound A123, 2,6-Difluorophenyl 4-{2,6-dimethyl-5-[({[2-(trifluoromethyl)pyrimidin-4-yl]methyl}amino)carbonyl]pyrimidin-4-yl}piperidine-1-carboxylate]",5.4
2,"Cc1nc(C)c(C(=O)NCc2ccnc(C(F)(F)F)n2)c(C2CCN(C(=O)Oc3ccccc3F)CC2)n1 [Compound A124, 2-Fluorophenyl 4-{2,6-dimethyl-5-[({[2-(trifluoromethyl)pyrimidin-4-yl]methyl}amino)carbonyl]pyrimidin-4-yl}piperidine-1-carboxylate]",11.4
3,"Cc1nc(C)c(C(=O)NCc2ccnc(C(F)(F)F)n2)c(C2CCN(C(=O)Oc3ccccc3)CC2)n1 [Compound A125, Phenyl 4-{2,6-dimethyl-5-[({[2-(trifluoromethyl)pyrimidin-4-yl]methyl}amino)carbonyl]pyrimidin-4-yl}piperidine-1-carboxylate]",11.6
4,"Cc1nc(N)nc(C2CCN(C(=O)Oc3ccccc3F)CC2)c1C(=O)NCc1ccnc(C(F)(F)F)n1 [Compound A126, 2-Fluorophenyl 4-{2-amino-6-methyl-5-[({[2-(trifluoromethyl)pyrimidin-4-yl]methyl}amino)carbonyl]pyrimidin-4-yl}piperidine-1-carboxylate]",15.2

# Same assay, conditions: RORγ SPA binding assay, inhibition of [3H]25-hydroxycholesterol binding; read-out: IC50
row,IC50 [nM],SMILES
1,137,"C/C(=N/Oc1cccc(C(F)(F)F)c1)c1cnc(C)nc1C1CCN(C(=O)Cc2c(F)cccc2F)CC1 [Compound B4, (Z)-2-(2,6-Difluorophenyl)-1-(4-(2-methyl-5-(1-(3-(trifluoromethyl)phenoxyimino)ethyl)pyrimidin-4-yl)piperidin-1-yl)ethanone]"
2,2.5,"C/C(=N\Oc1cccc(Cl)c1)c1cnc(C)nc1C1CCN(C(=O)Cc2c(F)cccc2F)CC1 [Compound B5, (E)-1-(4-(5-(1-((3-chlorophenoxy)imino)ethyl)-2-methylpyrimidin-4-yl)piperidin-1-yl)-2-(2,6-difluorophenyl)ethanone]"
3,1930,"C/C(=N/Oc1cccc(Cl)c1)c1cnc(C)nc1C1CCN(C(=O)Cc2c(F)cccc2F)CC1 [Compound B6, (Z)-1-(4-(5-(1-((3-chlorophenoxy)imino)ethyl)-2-methylpyrimidin-4-yl)piperidin-1-yl)-2-(2,6-difluorophenyl)ethanone]"
4,2.7,"C/C(=N\Oc1cc(C)cc(C)c1)c1cnc(C)nc1C1CCN(C(=O)Cc2c(F)cccc2F)CC1 [Compound B9, (E)-2-(2,6-difluorophenyl)-1-(4-(5-(1-((3,5-dimethylphenoxy)imino)ethyl)-2-methylpyrimidin-4-yl)piperidin-1-yl)ethanone]"
5,1670,"C/C(=N/Oc1cc(C)cc(C)c1)c1cnc(C)nc1C1CCN(C(=O)Cc2c(F)cccc2F)CC1 [Compound B10, (Z)-2-(2,6-difluorophenyl)-1-(4-(5-(1-((3,5-dimethylphenoxy)imino)ethyl)-2-methylpyrimidin-4-yl)piperidin-1-yl)ethanone]"
6,1.7,"C/C(=N\Oc1cccc(C)c1)c1cnc(C)nc1C1CCN(C(=O)Cc2c(F)cccc2F)CC1 [Compound B11, (E)-2-(2,6-difluorophenyl)-1-(4-(2-methyl-5-(1-((m-tolyloxy)imino)ethyl)pyrimidin-4-yl)piperidin-1-yl)ethanone]"
7,2.2,"C/C(=N\Oc1cc(F)cc(Cl)c1)c1cnc(C)nc1C1CCN(C(=O)Cc2c(F)cccc2F)CC1 [Compound B12, (E)-1-(4-(5-(1-((3-chloro-5-fluorophenoxy)imino)ethyl)-2-methylpyrimidin-4-yl)piperidin-1-yl)-2-(2,6-difluorophenyl)ethanone]"
8,4.7,"C/C(=N\Oc1ccnc(C#N)c1)c1cnc(C)nc1C1CCN(C(=O)Cc2c(F)cccc2F)CC1 [Compound B13, (E)-4-(((1-(4-(1-(2-(2,6-difluorophenyl)acetyl)piperidin-4-yl)-2-methylpyrimidin-5-yl)ethylidene)amino)oxy)picolinonitrile]"
9,4.8,"C/C(=N\Oc1ccnc(C(F)(F)F)c1)c1cnc(C)nc1C1CCN(C(=O)Cc2c(F)cccc2F)CC1 [Compound B14, (E)-2-(2,6-difluorophenyl)-1-(4-(2-methyl-5-(1-(((2-(trifluoromethyl)pyridin-4-yl)oxy)imino)ethyl)pyrimidin-4-yl)piperidin-1-yl)ethanone]"
10,5.1,"C/C(=N\Oc1ccnc(Cl)c1)c1cnc(C)nc1C1CCN(C(=O)Cc2c(F)cccc2F)CC1 [Compound B15, (E)-1-(4-(5-(1-(((2-chloropyridin-4-yl)oxy)imino)ethyl)-2-methylpyrimidin-4-yl)piperidin-1-yl)-2-(2,6-difluorophenyl)ethanone]"
11,5.9,"C/C(=N\Oc1cccc(F)c1)c1cnc(C)nc1C1CCN(C(=O)Cc2c(F)cccc2F)CC1 [Compound B16, (E)-2-(2,6-difluorophenyl)-1-(4-(5-(1-((3-fluorophenoxy)imino)ethyl)-2-methylpyrimidin-4-yl)piperidin-1-yl)ethanone]"
12,9.3,"C/C(=N\Oc1cc(F)ccc1C)c1cnc(C)nc1C1CCN(C(=O)Cc2c(F)cccc2F)CC1 [Compound B17, (E)-2-(2,6-difluorophenyl)-1-(4-(5-(1-((5-fluoro-2-methylphenoxy)imino)ethyl)-2-methylpyrimidin-4-yl)piperidin-1-yl)ethanone]"
13,11.2,"C/C(=N\Oc1cc(C)ccc1C)c1cnc(C)nc1C1CCN(C(=O)Cc2c(F)cccc2F)CC1 [Compound B18, (E)-2-(2,6-difluorophenyl)-1-(4-(5-(1-((2,5-dimethylphenoxy)imino)ethyl)-2-methylpyrimidin-4-yl)piperidin-1-yl)ethanone]"
14,23.7,"COc1cccc(O/N=C(\C)c2cnc(C)nc2C2CCN(C(=O)Cc3c(F)cccc3F)CC2)c1 [Compound B21, (E)-2-(2,6-difluorophenyl)-1-(4-(5-(1-((3-methoxyphenoxy)imino)ethyl)-2-methylpyrimidin-4-yl)piperidin-1-yl)ethanone]"

# Continued, compound first:
row,SMILES,IC50 [nM]
1,"C/C(=N\Oc1cccc(C(F)(F)F)c1)c1c(C)nc(C)nc1C1CCN(C(=O)Cc2c(F)cccc2F)CC1 [Compound B1, (1E)-1-(4-{1-[(2,6-Difluorophenyl)acetyl]piperidin-4-yl}-2,6-dimethylpyrimidin-5-yl)ethanone O-[3-(trifluoromethyl)phenyl]]",54
2,"C/C(=N/Oc1ccnc(C(F)(F)F)c1)c1c(C)nc(C)nc1C1CCN(C(=O)Cc2c(F)cccc2F)CC1 [Compound B2, (1Z)-1-(4-{1-[(2,6-Difluorophenyl)acetyl]piperidin-4-yl}-2,6-dimethylpyrimidin-5-yl)ethanone 0-[2-(trifluoromethyl)pyridin-4-yl]oxime]",444
3,"C/C(=N\Oc1cccc(C(F)(F)F)c1)c1cnc(C)nc1C1CCN(C(=O)Cc2c(F)cccc2F)CC1 [Compound B3, (E)-2-(2,6-Difluorophenyl)-1-(4-(2-methyl-5-(1-(3-(trifluoromethyl)phenoxyimino)ethyl)pyrimidin-4-yl)piperidin-1-yl)ethanone]",3.1
4,"C/C(=N\Oc1cccc(OC(F)(F)F)c1)c1cnc(C)nc1C1CCN(C(=O)Cc2c(F)cccc2F)CC1 [Compound B7, (E)-2-(2,6-difluorophenyl)-1-(4-(2-methyl-5-(1-((3-(trifluoromethoxy)phenoxy)imino)ethyl)pyrimidin-4-yl)piperidin-1-yl)ethanone]",10.6
5,"C/C(=N/Oc1cccc(OC(F)(F)F)c1)c1cnc(C)nc1C1CCN(C(=O)Cc2c(F)cccc2F)CC1 [Compound B8, (Z)-2-(2,6-difluorophenyl)-1-(4-(2-methyl-5-(1-((3-(trifluoromethoxy)phenoxy)imino)ethyl)pyrimidin-4-yl)piperidin-1-yl)ethanone]",1500
6,"C/C(=N\Oc1cccc(C(F)(F)F)n1)c1cnc(C)nc1C1CCN(C(=O)Cc2c(F)cccc2F)CC1 [Compound B19, (E)-2-(2,6-difluorophenyl)-1-(4-(2-methyl-5-(1-(((6-(trifluoromethyl)pyridin-2-yl)oxy)imino)ethyl)pyrimidin-4-yl)piperidin-1-yl)ethanone]",13.9
7,"C/C(=N\Oc1ccnc(C(F)(F)F)n1)c1cnc(C)nc1C1CCN(C(=O)Cc2c(F)cccc2F)CC1 [Compound B20, (E)-2-(2,6-difluorophenyl)-1-(4-(2-methyl-5-(1-(((2-(trifluoromethyl)pyrimidin-4-yl)oxy)imino)ethyl)pyrimidin-4-yl)piperidin-1-yl)ethanone]",15.8
8,"C/C(=N\Oc1cccc(C)c1C)c1cnc(C)nc1C1CCN(C(=O)Cc2c(F)cccc2F)CC1 [Compound B22, (E)-2-(2,6-difluorophenyl)-1-(4-(5-(1-((2,3-dimethylphenoxy)imino)ethyl)-2-methylpyrimidin-4-yl)piperidin-1-yl)ethanone]",84
9,"Cc1ncc(/C(CO)=N/Oc2ccnc(C(F)(F)F)c2)c(C2CCN(C(=O)Cc3c(F)cccc3F)CC2)n1 [Compound B23, (1Z)-1-(4-{1-[(2,6-Difluorophenyl)acetyl]piperidin-4-yl}-2-methylpyrimidin-5-yl)-2-hydroxyethanone O-[2-(trifluoromethyl)pyridin-4-yl]oxime]",8.4
10,"Cc1ncc(C(CF)=NOc2ccnc(C(F)(F)F)c2)c(C2CCN(C(=O)Cc3c(F)cccc3F)CC2)n1 [Compound B24, (1Z)-1-(4-{1-[(2,6-Difluorophenyl)acetyl]piperidin-4-yl}-2-methylpyrimidin-5-yl)-2-fluoroethanone 0-[2-(trifluoromethyl)pyridin-4-yl]oxime]",8.7
